The target in data set [1] is T1, hH2R-Gsαs fusion protein (Homo sapiens, UniProt P25021).
T1 construct: made in house; host or cells: Sf9 insect cells (recombinant baculovirus), membrane preparation
Kind of data set: Radioligand competition binding with [3H]UR-DE257 on Sf9 membranes. As to conditions: read-out: pKi (RL comp. binding Sf9 membranes) (converted). As for the experimental part: All data analysis was performed using Prism 5.0c (GraphPad, San Diego, CA, USA).
A general note: In a radioligand displacement assay an active substance lowers the binding of a labelled ligand.

Data set [2] is described as follows: Chemical stability in binding buffer (HPLC). It is filed as physicochemical. As to conditions: binding buffer pH 7.4, rt, 96 h incubation. Here is the method: The chemical stability of the fluorescent H2R ligands UR-KAT478 (8), UR-KAT515 (9) and UR-KAT514 (10) was investigated at physiological pH (7.4) in binding buffer (12.5 mM MgCl2, 1 mM EDTA and 75 mM Tris/HCl, pH 7.4)^1 and in case of UR-KAT514 (10) as well in a mixture of DMSO/binding buffer 1:1. Incubation was started by addition of 27.5 μL of a 2.5 mM solution of the respective compounds in DMSO/Millipore H2O 1:1, which were freshly prepared from a 5 mM stock solution in DMSO, to 522.5 μL of binding buffer or DMSO/binding buffer 1:1 yielding a final concentration of […]. The samples were shaken for up to 4 days at 700 rpm. After indicated time periods, a 70 μL aliquot was taken and diluted with 70 µL of a mixture of MeCN, Millipore H2O and 10% aqueous TFA (60:90:1). Prior to HPLC analysis, the samples were stored at -20 °C. 50 μL of the resulting solution were analyzed by HPLC as described in the experimental section. The absorption was detected at 220 nm. The blank HPLC run was performed under identical conditions without any ligand.

Data set [3] has as its target T2, hH2R (Homo sapiens, UniProt P25021). Description: Flow cytometric saturation binding assay with HEK293T-hH2R-qs5-HA cells. Set-up: expressed in transfected cells; host or cells: HEK293T-hH2R-qs5-HA cells. To be noted: saturation binding at HEK293T-hH2R-qs5-HA cells; mean ± SEM; read-out: pKd (Flow cytometry) (converted). As for the experimental part:
All flow cytometric measurements were performed with FACSCanto™II flow cytometer (Becton Dickinson, Heidelberg, Germany), equipped with an argon laser (488 nm) and a red diode laser (633 nm) (settings: FCS: A, log, 0 V; SSC: A, log, 252 V; ACP: A,H,W, log, 350 V or PerCP-Cy5-5: A,H, log 485 V or PE: A,H,W, log, 420 V) according to general protocols with minor modifications.^4,5 All measurements were performed in duplicate and recorded either in channel PerCP-Cy5 (Py-1, excitation: 488 nm), APC (BODIPY 630/650, excitation: 633 nm) or PE (TAMRA, excitation: 488 nm). Data acquisition was stopped after 10,000 gated events.
Cell culture and preparation of HEK293T-hH2R-qs5-HA cells was performed as described.^4 Briefly, cells were maintained in 25 or 175 cm^2 flasks (Sarstedt, Nümbrecht, Germany) in a humidified atmosphere (95% air, 5% CO2) at 37 °C using Dulbecco`s Modified Eagle`s Medium supplemented with 2 mM L-glutamine (Sigma-Aldrich, Munich, Germany), 10% FCS, 400 µg/mL geneticin (G418), and 100 µg/mL hygromycin B (AG Scientific, San Diego, CA, USA). On the day of the experiment, cells were detached with trypsin/EDTA (0.05%/0.2%) and centrifuged (500 x g, 5 min). The cell pellet was resuspended in Leibovitz’ L-15 medium containing 1% FCS and the cell density was adjusted to 1 x 10^6 cells/mL. The serial dilutions of the tested fluorescent ligands and famotidine (competitor, for non-specific binding) were prepared in DMSO/H2O (1:1, v/v). All incubation steps were performed in 96-well Primaria^TM plates (CORNING, NY, USA). 200 µL of the adjusted cell suspension were either added to 2 µL of DMSO/H2O (1:1, v/v, total binding) or to 2 µl of famotidine (300-fold excess over the fluorescent ligand, non-specific binding). Incubation was started by addition of 2 µL of the respective fluorescent ligand in different concentrations (100-fold concentrated with respect to the final concentration). […] Samples were transferred to 5 mL polystyrol FACS tubes (Sarstedt, Nümbrecht, Germany) and measured immediately. […]
A general note: A flow cytometer gives signals particle by particle.

For data set [4], the target named is T2, hH2R. Kind of data set: β-Arrestin2 recruitment assay (split-luciferase complementation), HEK293T-ARRB2-H2R cells. It is filed as cell-based. Also on record: expressed in transfected cells; host or cells: HEK293T-ARRB2-H2R cell line. As to conditions: read-out: pKb (β-arrestin2 recruitment) (converted). (Arrestin recruitment assays detect the binding of arrestin to an activated receptor.)
Protocol: One day prior to the experiment, the cells were detached with trypsin/EDTA (0.05%/0.2%) and were centrifuged (500 x g, 5 min). The cells were resuspended in Leibovitz’ L-15 medium + 5% FCS + 10 mM HEPES and the density of the suspension was adjusted to 1.25 x 10^6 cells/mL (agonist mode) or 1.4 x 10^6 cells/mL (antagonist mode). 80 µL (agonist mode) or 70 µL (antagonist mode) of the cell suspension were seeded in white, tissue culture-treated, flat bottom 96-well microtiter plates (Brand, Wertheim, Germany). The cells were incubated at 37 °C overnight in a water saturated atmosphere w/o additional CO2. […] In the meantime, serial dilutions of the tested compounds (10-fold concentrated with respect to the final concentration) were prepared in L-15 + 10 mM HEPES and pre-warmed to 37 °C. After the baseline-read, the dilutions of the test compounds (10 µL/well) were transferred to the 96-well plate. […] For the determination of antagonism, the dilutions of the test compounds (10 µL/well) were transferred to the 96-well plate directly after the addition of D-luciferin (as described above) and the baseline was recorded like in the agonist mode. […] Normalized data were fitted applying a four-parameter logistic fit yielding pIC50 values, which were then transformed into pKb values using the Cheng-Prusoff equation.^8 All data analysis was performed using Prism 5.0c (GraphPad, San Diego, CA, USA).

T2 sequence (P25021 whole entry): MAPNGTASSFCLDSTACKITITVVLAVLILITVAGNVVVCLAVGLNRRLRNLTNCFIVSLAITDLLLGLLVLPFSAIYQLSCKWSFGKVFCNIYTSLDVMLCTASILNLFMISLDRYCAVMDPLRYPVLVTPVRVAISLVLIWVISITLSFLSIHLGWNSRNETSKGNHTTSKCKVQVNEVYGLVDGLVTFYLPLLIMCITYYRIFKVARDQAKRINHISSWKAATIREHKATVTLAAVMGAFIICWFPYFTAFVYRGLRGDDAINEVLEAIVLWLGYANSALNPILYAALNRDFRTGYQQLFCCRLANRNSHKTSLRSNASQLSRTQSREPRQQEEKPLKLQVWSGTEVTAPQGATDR
T1 sequence (P25021+P63092 fused): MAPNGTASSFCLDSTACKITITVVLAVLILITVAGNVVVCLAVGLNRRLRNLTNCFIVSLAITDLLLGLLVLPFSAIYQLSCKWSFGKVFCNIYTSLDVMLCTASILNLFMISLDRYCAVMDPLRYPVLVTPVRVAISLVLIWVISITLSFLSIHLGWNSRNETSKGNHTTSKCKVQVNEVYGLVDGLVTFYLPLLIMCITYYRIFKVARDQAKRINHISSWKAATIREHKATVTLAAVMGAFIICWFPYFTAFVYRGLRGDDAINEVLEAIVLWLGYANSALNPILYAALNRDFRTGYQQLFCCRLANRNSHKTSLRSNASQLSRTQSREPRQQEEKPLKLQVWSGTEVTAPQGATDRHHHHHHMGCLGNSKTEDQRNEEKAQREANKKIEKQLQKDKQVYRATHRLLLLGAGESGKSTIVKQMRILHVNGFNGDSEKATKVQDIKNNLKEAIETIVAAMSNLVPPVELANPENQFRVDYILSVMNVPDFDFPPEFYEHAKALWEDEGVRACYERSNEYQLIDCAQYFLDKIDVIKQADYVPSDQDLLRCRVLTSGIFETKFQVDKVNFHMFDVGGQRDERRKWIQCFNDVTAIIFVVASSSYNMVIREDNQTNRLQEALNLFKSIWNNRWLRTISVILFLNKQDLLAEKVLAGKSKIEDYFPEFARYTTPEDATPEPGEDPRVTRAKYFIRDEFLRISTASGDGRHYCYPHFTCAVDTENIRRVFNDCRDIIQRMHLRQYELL

For the compound `Cc1cc(/C=C/c2cc3c4c(c2)CCCN4CCC3)cc(C)[n+]1CCCCNc1c(NCCCOc2cccc(CN3CCCCC3)c2)c(=O)c1=O` [Compound 8, (E)-1-(4-((3,4-Dioxo-2-((3-(3-(piperidin-1-ylmethyl)phenoxy)propyl)amino)cyclobut-1-en-1-yl)amino)butyl)-2,6-dimethyl-4-(2-(2,3,6,7-tetrahydro-1H,5H-pyrido[3,2,1-ij]quinolin-9-yl)vinyl)pyridin-1-ium], the Ki in data set [1] is 24 nM. Besides, the “Chemical stability (decomposition)” value in data set [2] was “no decomposition”. Also, the Kd in data set [3] was 74.1 nM. The Kb in data set [4] was 16.6 nM.

The values are drawn from paper PMC7414126 (Scientific Reports, 2020).
